Measured values reported in US9423404B1, “Method of screening for an agent that enhances beige fat adipogenesis” (The Board of Trustees of the Leland Stanford Junior …, priority 2013, dated 2016).

Columns and labels:
CYP24A1 = assay: RT-qPCR of CYP24A1 (24-hydroxylase), marker of calcitriol responsiveness; type: cell-based, human; details: H305Q mutant, 10 nM calcitriol, ex vivo
Protocol: FIG. 3. […] (A) Control and HVDRR fibroblasts were treated with vehicle (0.1% ethanol) or 10 nM calcitriol for 6 hr. RT-qPCR assays were carried out for CYP24A1 a marker of calcitriol responsiveness. DM denotes double mutant with H305Q mutation in the VDR and BSCL2 mutation. […] Relative gene expression of UCP1 in WT and HVDRR fibroblasts differentiated with DIMR or DIMR plus 10 nM calcitriol for 14 days.
Real-time RT-PCR. […] RNA was isolated using RNeasy Plus Mini Kit (Qiagen, Valencia, Calif.). cDNA was prepared using Maxima Universal First Strand cDNA Synthesis kit (Fisher Scientific, Pittsburgh, Pa.). Real time PCR was performed using the DyNAmo ColorFlash qPCR kit (Fisher Scientific). Relative changes in mRNA expression were assessed by the 2-ΔΔC(T) method and normalized to that of the reference gene glyceraldehyde phosphate dehydrogenase (GAPDH). The values from vehicle treated normal control fibroblasts were set at 1. Assays were performed in triplicate.

[1] = tested on: differentiated human fibroblasts; assay: Lipolysis assay (glycerol release); type: cell-based; details: for increase in glycerol release compared to the undifferentiated cells: 10 μM isoproterenol 24 hrs
Protocol: Lipolysis assay. To measure lipolysis activity, control and differentiated fibroblasts, were starved in DMEM containing 1% FBS overnight. Cells were then incubated for 24 hrs in HBSS (Hank's balanced salt solution) containing 2% fatty-acid-free BSA and 10 μM isoproterenol. The culture medium was collected for glycerol measurement using the free glycerol reagent (Sigma, St. Louis, Mo.).

Structure (SMILES) | induction of 24-hydroxylase (CYP24A1) expression by VDR (CYP24A1) | induction of lipolysis compared to the H305Q single mutant ([1]; H305Q/BSCL2 double mutant) | increase in glycerol release compared to the undifferentiated cells ([1]; HVDRR cells differentiated with DIMR) | increase in glycerol release compared to the undifferentiated cells ([1]; WT control cells differentiated with DIMR)
C=C1/C(=C\C=C2/CCC[C@]3(C)[C@@H]([C@H](C)CCCC(C)(C)O)CC[C@@H]23)C[C@@H](O)C[C@@H]1O [calcitriol] | rescues the induction | – | – | –
CC(C)NCC(O)c1ccc(O)c(O)c1 (stereo not shown) [isoproterenol] | – | significantly less induction of lipolysis | 1.5-4 fold | 2.5 fold
